From article PMC13059705, “Peptidoglycan DD-peptidases have distinct activities that impact fitness of Acinetobacter baumannii” (mBio, 2026)

Tests used:
[1] = biological target: T1, PBP5/6a (Acinetobacter baumannii, UniProt G1C735); assay: bocillin-binding assay with SDS-PAGE; conditions: covalent; labelled compound; used to confirm identity of the purified protein
T1 construct: gene dacC; Triton X-100 extraction, Ni-NTA
T1 sequence (G1C735 20-382): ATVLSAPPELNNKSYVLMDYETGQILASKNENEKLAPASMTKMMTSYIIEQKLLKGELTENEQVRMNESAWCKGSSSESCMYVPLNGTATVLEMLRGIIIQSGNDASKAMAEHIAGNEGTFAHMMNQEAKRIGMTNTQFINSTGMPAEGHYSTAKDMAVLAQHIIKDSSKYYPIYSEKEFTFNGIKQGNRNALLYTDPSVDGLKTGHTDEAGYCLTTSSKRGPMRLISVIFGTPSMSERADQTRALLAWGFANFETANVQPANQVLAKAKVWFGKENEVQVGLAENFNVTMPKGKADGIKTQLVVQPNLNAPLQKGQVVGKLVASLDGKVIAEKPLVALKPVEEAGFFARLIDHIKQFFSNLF

[2] = biological target: T2, PBP6b (Acinetobacter baumannii, UniProt A0ABX6CI93); assay: bocillin-binding assay with SDS-PAGE; conditions: covalent; labelled compound; used to confirm identity of the purified protein
T2 construct: gene dacD; Triton X-100 extraction, Ni-NTA
T2 sequence (A0ABX6CI93 22-439): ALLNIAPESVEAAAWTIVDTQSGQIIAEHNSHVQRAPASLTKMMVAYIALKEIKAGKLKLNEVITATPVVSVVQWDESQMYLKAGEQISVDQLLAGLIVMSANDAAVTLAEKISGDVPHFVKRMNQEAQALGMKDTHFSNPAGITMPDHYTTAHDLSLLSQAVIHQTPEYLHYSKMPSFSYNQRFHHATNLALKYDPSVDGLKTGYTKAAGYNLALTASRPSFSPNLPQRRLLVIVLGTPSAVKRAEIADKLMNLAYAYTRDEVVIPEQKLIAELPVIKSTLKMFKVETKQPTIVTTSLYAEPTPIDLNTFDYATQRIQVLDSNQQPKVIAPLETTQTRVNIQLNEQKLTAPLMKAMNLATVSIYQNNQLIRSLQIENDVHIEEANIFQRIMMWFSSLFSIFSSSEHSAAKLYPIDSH

Compound: Cc1cc(C)n2c1C=C1C=CC(CCC(=O)Nc3ccc(OCC(=O)N[C@@H]4C(=O)N5[C@@H]4SC(C)(C)[C@@H]5C(=O)O)cc3)=[N+]1[B-]2(F)F [bocillin]
- bocillin-binding assay with SDS-PAGE [1]: Protein purity and identity were confirmed by SDS-PAGE and bocillin-binding assays
- bocillin-binding assay with SDS-PAGE [2]: Protein purity and identity were confirmed by SDS-PAGE and bocillin-binding assays
